Assay results: publication PMC7504721, “Targeting the Initiator Protease of the Classical Pathway of Complement Using Fragment-Based Drug Discovery” (Molecules, 2020)

What was measured:
[1] = target: T1, C1r-CCP2-SP (Homo sapiens, UniProt P00736); assay: SPR domain mapping, C1r-CCP2-SP surface; format: binding; conditions: duplicate
T1 sequence (P00736 374-463 limits assumed): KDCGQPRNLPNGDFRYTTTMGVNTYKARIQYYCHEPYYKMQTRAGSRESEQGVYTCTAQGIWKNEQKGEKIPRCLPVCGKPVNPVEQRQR
T1 sequence (P00736 464-705 limits assumed): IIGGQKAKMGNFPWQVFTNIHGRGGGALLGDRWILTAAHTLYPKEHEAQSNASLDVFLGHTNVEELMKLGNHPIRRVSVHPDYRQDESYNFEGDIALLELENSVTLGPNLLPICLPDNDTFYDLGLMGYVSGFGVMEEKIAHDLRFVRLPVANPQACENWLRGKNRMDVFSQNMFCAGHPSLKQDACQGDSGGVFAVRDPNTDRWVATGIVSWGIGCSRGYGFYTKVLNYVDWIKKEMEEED
Source text: (§1) Figure 5 Selectivity and mechanistic analysis of CMP-1611 and CMP-1696. (A) Chemical structure of CMP-1611. (B) Chemical structure of CMP-1696. (C) Dose-dependent inhibition by CMP-1611 and CMP-1696 in a classical pathway-specific ELISA. Data were fit with GraphPad Prism using non-linear regression with a log(inhibitor) vs. response model. […] The CMP-778 inhibitory response could not be fit to a dose-response inhibition model. (D) Complement pathway selectivity of CMP-1611 and CMP-1696. Compounds were assessed for their ability to inhibit activation of complement via the lectin and alternative pathways using single doses of 500 μM compound in triplicate. To ensure only lectin pathway activation, 2% (v/v) C1q-depleted serum (CompTech) was used and mannan was used as the activator. To match serum sources and amounts for this assay, the classical pathway assays were repeated here using serum from CompTech at 2% (v/v) final concentration. Alternative pathway activation assays were performed using 20% (v/v) serum (CompTech), alternative pathway buffers, and C3b detection (see Methods and Materials for details). […] (E) C1r, C1r-CUB1, and C1r-CCP2-SP, were immobilized on an SPR sensor chip and binding responses for 500 μM CMP-1611 and CMP-1696 or 10 μM Futhan were each injected in duplicate over all surfaces. Binding responses were corrected for the molecular weight of each analyte and the immobilization level and molecular weight of each surface ligand. Measures of statistical significance in (D) were obtained by comparison of vehicle control using an unpaired t-test (* p < 0.05). To assess selectivity of CMP-1611 and CMP-1696, we performed pathway-specific ELISA-based inhibition assays. […] However, CMP-1696, but not CMP-1611, blocked lectin pathway activation at a similar level as it did the classical pathway (Figure 5D). To further investigate the divergent selectivity profiles of CMP-1611 and CMP-1696, we first sought to clarify the binding site on C1r for each compound. […] We then injected each compound simultaneously over the three surfaces at 500 μM and measured binding responses. […]

[2] = target: T2, C1r-CUB1 (Homo sapiens, UniProt P00736); assay: SPR domain mapping, C1r-CUB1 surface; format: binding; conditions: duplicate
T2 construct: The C1r-CUB1 construct corresponds to C1r residues 18–141; made in house; host or cells: E. coli BL21 (DE3)
T2 sequence (P00736 18-141): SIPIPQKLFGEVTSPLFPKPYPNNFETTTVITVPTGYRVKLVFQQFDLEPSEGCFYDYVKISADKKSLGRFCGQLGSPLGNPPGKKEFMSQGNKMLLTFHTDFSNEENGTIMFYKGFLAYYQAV
Source text: as §1

SMILES	relative SPR binding response, C1r-CCP2-SP ([1]; 500 µM compound)	relative SPR binding response, C1r-CUB1 ([2]; 500 µM compound)	relative SPR binding response, C1r-CCP2-SP ([1]; 10 µM Futhan)	relative SPR binding response, C1r-CUB1 ([2]; 10 µM Futhan)
CN(C)c1cc(N2CCCC(N)C2)ncn1 (stereo not drawn) [CMP-1611]	bound weakly	bound weakly	–	–
N=C(N)c1ccc2cc(OC(=O)c3ccc(N=C(N)N)cc3)ccc2c1 [Futhan, reference compound]	–	–	bound C1r and C1r-CCP2-SP similarly	very little binding response
COCc1nc(-c2ccc(OC3CNC3)cc2)no1 [CMP-1696]	high binding	low binding	–	–
